Results: US7659312B2, “Inhibitors of Aquaporin 4, methods and uses thereof” (Niigata University, priority 2006, dated 2010)
Read-outs that look alike come from different tables or passages of the source.

Assays:
[1] = biological target: T1, human aquaporin-4 M23 isoform (hAQP4b) (Homo sapiens, UniProt P55087); assay: Inhibition of AQP4 mediated hypoosmotic swelling of Xenopus laevis oocytes expressing hAQP4b; format: cell-based; set-up: IAmax: unit not given here; conditions: for IAmax: value in parentheses after IC50, 0.01≦[X]≦100 μM
T1 construct: Full-length cRNA was subcloned into pSP35T expression vector for Xenopus oocytes; expressed in transfected cells; host or cells: Xenopus laevis oocytes injected with hAQP4b cRNA (pSP35T vector)

[2] = biological target: T1, human aquaporin-4 M23 isoform (hAQP4b); assay: as above; format: cell-based; conditions: for inhibition at 20 µM / % Inh (percent inhibition and cumulated error): Table 3, [X]=20 μM, P<0.05; for inhibition at 20 µM: read-out: % Inh (percent inhibition and cumulated error)
Experimental: Compounds studied in vitro were purchased from Sigma-Aldrich, Tokyo Kasei, Wako or Scientific Exchange, and were used without further purification. […] Compound samples were freshly dissolved into DMSO (Sigma, Hibri-Max) and diluted into RO deionized water (Milipore, Ultra-Q) prior to use. Other reagents were purchased from Sigma and Wako and were used without modification. Modified Barth's Medium (MBS) and isolation buffer were prepared using autoclaved, doubly distilled water. MBS was used for up to one week after its preparation. […] Isolation buffer was prepared to contain NaCl (108 mM), KCl (2 mM), EDTA, (2 mM), HEPES (10 mM), and was at pH=7.5.
cDNA encoding human aquaporin-4 M23 isoform (hAQP4b) was cloned by reverse-transcription polymerase chain reaction (RT-PCR). First-strand cDNA was synthesized from human cerebellum total RNA by using the Advantage RT-for-PCR Kit (CLONTECH). The following oligonucleotide PCR primers were designed based on published hAQP4b sequences (Lu, et al. Proc. Nat. Acad. Sci. USA 1996, 93, 10908): forward 5′-[…]-3′, reverse 5′-[…]-3′. Full-length cRNA was subcloned into pSP35T expression vector for Xenopus oocytes (Amaya, et al. Cell 1991, 66, 257).
Oocytes from an adult, female Xenopus laevis were transferred portion-wise to a Petri dish containing isolation buffer, where the follicular membranes and vitelline were removed manually, thereby yielding denuded oocytes (Sakimura, et al. FEBS Lett. 1990, 272, 73). Denuded stage V-VI oocytes were then returned to fresh MBS medium and allowed to equ ilibrate for a minimum of 2 h at 18° C. prior to cRNA injection. Denuded oocytes unused after 24 h were discarded. An aliquot of hAQP4b cRNA solution (20 μL) was pelleted by centrifugation (15,000 rpm, 14 min, 4° C.), the pellet was washed sequentially with 70% aqueous ethanol, then 100% ethanol (centrifugation between washes at 15,000 rpm, 3 min, 4° C.), air dried, and finally reconstituted in distilled water (10 μL). An aliquot (30 nL) of either the resulting 0.1 μg/μL cRNA solution (3 ng hAQP4b cRNA/oocyte) or distilled water (sham) was injected into each oocyte using a Drummond oocyte injection system. The injected oocytes were then incubated for 48 h at 18° C. in MBS. The medium was changed and non-viable oocytes removed 24 and 48 h post injection.
An oocyte assay procedure was developed as follows: At a minimum of 3 h prior to the assay, oocytes were transferred to a 96 well microplate (Falcon 353077) along with 45 μL of MBS. An aliquot of a 200 μM inhibitor solution (5 μL, 1% aq. DMSO), or blank (5 μL, 1% aq. DMSO) was introduced to the oocyte containing well 2 h before the assay. The final concentration of the incubation medium was 20 μM in inhibitor with 0.1% DMSO. A secondary plate was likewise prepared by diluting an aliquot of the 200 μM inhibitor solution (15 μL, 1% aq. DMSO) or blank (15 μL, 1% aq. DMSO) with distilled water (135 μL). The assay was performed by transferring an aliquot of the secondary plate medium (100 μL) to the corresponding well on the incubation plate. […] The initial image (nominally t=3 s) and subsequent images (60 s intervals) were recorded for up to 4 minutes post dilution.
Images were transferred to a PC and the area of each oocyte was evaluated using NIH Image-J. The cross-sectional area values for each oocyte at time=t were converted to volumes assuming a spherical relationship. The relative volume of each oocyte compared to its initial volume was then determined. Relative oocyte volumes were then averaged for n oocytes along with the standard error at each point.

AQP1 = biological target: T2, AQP1 (Homo sapiens, UniProt P29972); conditions: literature report; cited from earlier work
T2 sequence (P29972 1-269): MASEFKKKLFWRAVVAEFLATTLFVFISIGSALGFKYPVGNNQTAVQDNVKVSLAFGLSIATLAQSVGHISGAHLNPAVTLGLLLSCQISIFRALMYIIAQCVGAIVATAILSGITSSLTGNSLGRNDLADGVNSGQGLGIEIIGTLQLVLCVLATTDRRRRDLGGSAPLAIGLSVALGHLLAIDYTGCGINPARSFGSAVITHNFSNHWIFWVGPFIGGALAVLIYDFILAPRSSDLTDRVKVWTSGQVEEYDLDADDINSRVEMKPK

HEK293 cells = conditions: literature report, isozyme not demonstrated; cited from earlier work
AQP4 = AQP4 (Homo sapiens, UniProt P55087); conditions: literature report; cited from earlier work
[3] = figure legends FIGS. 8-12, non-linear least squares fit of dose dependent inhibition, read-out: IC50
[4] = Table 3, from inhibitory data at 0.01≦[X]≦100 μM, read-out: IC50

T1 sequence (P55087 23-323): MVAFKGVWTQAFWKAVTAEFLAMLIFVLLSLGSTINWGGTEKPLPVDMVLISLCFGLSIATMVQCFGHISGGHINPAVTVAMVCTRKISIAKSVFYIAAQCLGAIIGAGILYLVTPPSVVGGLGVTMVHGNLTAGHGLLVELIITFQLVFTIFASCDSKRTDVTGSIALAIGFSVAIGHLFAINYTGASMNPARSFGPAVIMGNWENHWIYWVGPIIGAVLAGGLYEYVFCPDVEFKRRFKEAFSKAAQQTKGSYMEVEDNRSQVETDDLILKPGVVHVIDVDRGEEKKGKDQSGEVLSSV
Chain of AQP4 (P55087 whole entry): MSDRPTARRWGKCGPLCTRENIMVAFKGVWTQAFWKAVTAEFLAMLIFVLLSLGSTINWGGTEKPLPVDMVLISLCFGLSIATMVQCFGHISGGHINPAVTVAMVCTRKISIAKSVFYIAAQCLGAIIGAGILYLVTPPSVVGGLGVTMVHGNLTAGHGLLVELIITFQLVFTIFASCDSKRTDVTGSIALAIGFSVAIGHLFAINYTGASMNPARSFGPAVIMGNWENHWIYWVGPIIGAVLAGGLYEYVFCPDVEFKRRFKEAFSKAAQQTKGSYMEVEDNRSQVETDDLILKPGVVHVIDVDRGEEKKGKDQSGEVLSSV

Row | inhibition at 20 µM [2] [%] | IAmax ([1]; Table 3) | SMILES | also measured
1 | 23 ± 5 |  | CC(=O)Nc1ccc(S(N)(=O)=O)cc1 [Compound 3, N-(4-sulfamoylphenyl)acetamide] | 
2 | 33 ± 4 |  | NC(=O)N1c2ccccc2CC(=O)c2ccccc21 [Compound 5, 10-oxo-10,11-dihydro-5H-dibenzo [b,f]azepine-5-carboxamide] | 
3 | 58 ± 4 | 60 | O=C1NC(=O)C(c2ccccc2)(c2ccccc2)N1 [Compound 4, 5,5-diphenylimidazolidine-2,4-dione] | IC50 [1, 4]: 9.8 µM
4 | 78 ± 3 | 86 | CC(=O)Nc1nnc(S(N)(=O)=O)s1 [Compound 1, N-(5-sulfamoyl-1,3,4-thiadiazol-2-yl)acetamide] | dose response dependent inhibition of AQP4 mediated water transport ([1]; FIG. 7, 0.01, 0.1, 1.0 and 10 μM solutions, n=5): significant inhibition; IC50 ([1]; Table 3, from inhibitory data at 0.01≦[X]≦100 μM): 0.86 µM
5 | 67 ± 6 | 73 | O=C(Nc1nncs1)c1cccnc1 [Compound 10, N-(1,3,4-thiadiazol-2-yl) nicotinamide] | IC50 [1, 4]: 3.1 µM
6 | 19 ± 5 |  | NS(=O)(=O)Cc1noc2ccccc12 [Compound 9, benzo[d]isoxazol-3-ylmethane sulfonamide] | 
7 | 23 ± 8 |  | NC(=O)c1nc[nH]c1C(N)=O [Compound 14, 1H-imidazole-4,5-dicarboxamide] | 
8 | 40 ± 7 |  | NC(=O)N1c2ccccc2[C@H]2O[C@H]2c2ccccc21 [Compound 6, (1aR, 10bS)-1aH-dibenzo[b,f] oxireno[2,3-d]azepine-6(10bH)-carboxamide] | inhibition of AQP4 mediated water swelling / water transport ([2]; FIGS. 1-6, 20 μM inhibitor, hypoosmotic conditions, versus sham and blank oocytes, n=5 minimum): did not show a significantly inhibited water transport
9 | 18 ± 9 |  | NS(=O)(=O)c1ccc(Cl)s1 [Compound 13, 2-chlorothiophene-5-sulfonamide] | 

More lines, now with the values behind:

Row | SMILES | inhibition at 20 µM [2] [%] | IAmax ([1]; Table 3) | also measured
10 | CN(C)CCc1c[nH]c2ccc(Cn3cncn3)cc12 [Table 3 entry 15, 2-(5-((1H-1,2,4-triazol-1-yl)methyl)-1H-indol-3-yl)-N,N-dimethylethanamine] |  |  | IC50 [1, 3]: 2.9 µM
11 | O=S(=O)(Cc1ccccc1)Nc1nncs1 [Compound 12, 1-phenyl-N-(1,3,4-thiadiazol-2-yl) methanesulfonamide] |  |  | % Inh (percent inhibition and cumulated error) [2]: 45 ± 8%
12 | Nc1nnc(-c2cccc(Cl)c2Cl)c(N)n1 [Compound 7, 6-(2,3-dichlorophenyl)-1,2,4-triazine-3,5-diamine] | 54 ± 9 | 64 | IC50 [1, 4]: 8.1 µM
13 | CC(=O)Nc1nnc(S(N)(=O)=O)s1 [acetazolamide] |  |  | inhibition of AQP1 (AQP1): inhibited in a dose dependent manner
14 | CC(=O)Nc1nnc(S(N)(=O)=O)s1 [Table 3 entry 1, N-(5-sulfamoyl-1,3,4-thiadiazol-2-yl)acetamide] |  |  | IC50 [2]: 0.86 µM
15 | O=C1NC(=O)C(c2ccccc2)(c2ccccc2)N1 [Table 3 entry 4, 5,5-diphenylimidazolidine-2,4-dione] |  |  | IC50 [1, 3]: 9.8 µM
16 | O=C(Nc1nccs1)c1cccnc1 [Compound 11, N-(thiazol-2-yl)nicotinamide] | 21 ± 7 | 23 | IC50 [1, 4]: 3.4 µM
17 | CN(C)CCc1c[nH]c2ccc(Cn3cncn3)cc12 [Compound 15, 2-(5-((1H-1,2,4-triazol-1-yl)methyl)-1H-indol-3-yl)-N,N-dimethylethanamine] | 51 ± 5 | 54 | IC50 [1, 4]: 2.9 µM
18 | CC1(C)O[C@@H]2[C@@H](CO[C@@]3(COS(N)(=O)=O)OC(C)(C)O[C@@H]23)O1 [Compound 8, ((3aS,5aR,8aR,8bS)-2,2,7,7-tetra-methyltetrahydro-3aH-bis[1,3]dioxolo[4,5-b:4′,5′-d]pyran-3a-yl) methyl sulfamate] |  | 75 | % Inh (percent inhibition and cumulated error) [2]: 67 ± 6%; IC50 [1, 4]: 10.1 µM
19 | COC(=O)Nc1nc2ccc(C(=O)c3cccs3)cc2[nH]1 [Nocodazole] |  |  | inhibition of AQP4 mediated hypoosmotic expansion (HEK293 cells): inhibiting the AQP4 mediated hypoosmotic expansion of HEK293 cells
20 | O=C(Nc1nncs1)c1cccnc1 [Table 3 entry 10, N-(1,3,4-thiadiazol-2-yl) nicotinamide] |  |  | IC50 [1, 3]: 3.1 µM
21 | CC[N+](CC)(CC)CC.[Cl-] [tetraethyl ammonium chloride] |  |  | inhibition of AQP4 (AQP4): shown to inhibit AQP4
22 | CC1(C)O[C@@H]2[C@@H](CO[C@@]3(COS(N)(=O)=O)OC(C)(C)O[C@@H]23)O1 [Table 3 entry 8, ((3aS,5aR,8aR,8bS)-2,2,7,7-tetra-methyltetrahydro-3aH-bis[1,3]dioxolo[4,5-b:4′,5′-d]pyran-3a-yl) methyl sulfamate] |  |  | IC50 [1, 3]: 10.1 µM
